Tests used:
Human δ-opioid (DOP) = molecular target: T1, Human δ-opioid (DOP) (Homo sapiens, UniProt P41143); assay: Radioligand binding, human δ-opioid (DOP) membranes, FlashPlate, [3H]-Bremazocine; conditions: compound at 10 μM; [3H]-Bremazocine
T1 construct: purchased Perkin Elmer Biosignal
Outline: (§1)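 Cloned human receptor membranes were coated onto FlashPlate wells and incubated with radioligand and compound (added from a 0.5 mM DMSO daughter plate) for 1 hour at room temperature in the dark. Scintillation counting gave percent inhibition, with DMSO defining total and reference ligand defining non-specific binding.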

Human κ-Opioid (KOP) = molecular target: T2, Human κ-Opioid (KOP) (Homo sapiens, UniProt P41145); assay: Radioligand binding, human κ-opioid (KOP) membranes, filtration, [3H]-Diprenorphine; conditions: compound at 10 μM, [3H]-Diprenorphine
T2 construct: purchased Perkin Elmer Biosignal
Outline: (§2)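 Membranes from cloned human receptors were incubated with compound and radioligand for 1 hour at room temperature. Bound ligand was collected on 0.3% PEI-soaked filters, washed with cold 50 mM Tris-HCl pH 7.4, and counted by scintillation. Percent inhibition was computed against DMSO totals and reference-ligand nonspecific wells.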

Human Melanocortin (MC3) = molecular target: T3, Human Melanocortin (MC3) (Homo sapiens, UniProt P41968); assay: Radioligand binding, human melanocortin MC3 membranes, FlashPlate, [125I]-NDP-αMSH; conditions: compound at 10 μM, [125I]-NDP-αMSH
T3 construct: purchased Perkin Elmer Biosignal
Outline: as §1

Human Melanocortin (MC4) = molecular target: T4, Human Melanocortin (MC4) (Homo sapiens, UniProt P32245); assay: Radioligand binding, human melanocortin MC4 membranes, FlashPlate, [125I]-NDP-αMSH; conditions: compound at 10 μM, [125I]-NDP-αMSH
T4 construct: purchased Perkin Elmer Biosignal
Outline: as §1

Human melanocortin (MC5) = molecular target: T5, Human melanocortin (MC5) (Homo sapiens, UniProt P33032); assay: Radioligand binding, human melanocortin MC5 membranes, FlashPlate, [125I]-NDP-αMSH; conditions: compound at 10 μM; [125I]-NDP-αMSH
T5 construct: purchased Perkin Elmer Biosignal
Outline: as §1

[1] = molecular target: T6, Human melanin-concentrating hormone (MCH1) (Homo sapiens, UniProt Q99705); assay: Radioligand binding, human melanin-concentrating hormone MCH1 membranes, FlashPlate, [125I]-S36057; conditions: compound at 10 μM; [125I]-S36057
T6 construct: purchased Perkin Elmer Biosignal
Outline: as §1

Human μ-opioid (MOP) = molecular target: T7, Human μ-opioid (MOP) (Homo sapiens, UniProt P35372); assay: Radioligand binding, human μ-opioid (MOP) membranes, FlashPlate, [3H]-Naloxone; conditions: compound at 10 μM, [3H]-Naloxone
T7 construct: purchased Perkin Elmer Biosignal
Outline: as §1

Human neurokinin (NK1) = molecular target: T8, Human neurokinin (NK1) (Homo sapiens, UniProt P25103); assay: Radioligand binding, human neurokinin NK1 membranes, filtration, [125I]-Substance P; conditions: compound at 10 μM; [125I]-Substance P
T8 construct: purchased Perkin Elmer Biosignal
Outline: as §2

[2] = molecular target: T9, Human neuropeptide Y (NPY-Y1) (Homo sapiens, UniProt P25929); assay: Radioligand binding, human neuropeptide Y NPY-Y1 membranes, FlashPlate, [125I]-PYY; conditions: compound at 10 μM, [125I]-PYY
T9 construct: purchased Perkin Elmer Biosignal
T9 sequence (P25929 1-384): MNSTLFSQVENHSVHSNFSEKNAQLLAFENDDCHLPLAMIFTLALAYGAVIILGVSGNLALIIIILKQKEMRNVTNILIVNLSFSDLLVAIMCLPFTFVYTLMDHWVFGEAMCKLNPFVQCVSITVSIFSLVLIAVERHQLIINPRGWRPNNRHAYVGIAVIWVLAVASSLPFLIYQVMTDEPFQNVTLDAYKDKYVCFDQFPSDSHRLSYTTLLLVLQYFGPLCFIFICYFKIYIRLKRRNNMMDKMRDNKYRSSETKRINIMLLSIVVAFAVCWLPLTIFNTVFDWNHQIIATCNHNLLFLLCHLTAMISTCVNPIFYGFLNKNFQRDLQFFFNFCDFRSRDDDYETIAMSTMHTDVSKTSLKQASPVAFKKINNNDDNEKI
Outline: as §1

Human opioid (ORL1) = molecular target: T10, Human opioid (ORL1) (Homo sapiens, UniProt P41146); assay: Radioligand binding, human opioid ORL1 membranes, FlashPlate, [125I]-Nociceptin; conditions: compound at 10 μM; [125I]-Nociceptin
T10 construct: purchased Perkin Elmer Biosignal
Outline: as §1

Mouse urotensin (mUR2) = molecular target: T11, Mouse urotensin (mUR2) (Mus musculus, UniProt Q8VIH9); assay: Radioligand binding, mouse urotensin mUR2 membranes, FlashPlate, [125I]-Urotensin II; conditions: compound at 10 μM; [125I]-Urotensin II
T11 construct: purchased Perkin Elmer Biosignal
T11 sequence (Q8VIH9 1-385): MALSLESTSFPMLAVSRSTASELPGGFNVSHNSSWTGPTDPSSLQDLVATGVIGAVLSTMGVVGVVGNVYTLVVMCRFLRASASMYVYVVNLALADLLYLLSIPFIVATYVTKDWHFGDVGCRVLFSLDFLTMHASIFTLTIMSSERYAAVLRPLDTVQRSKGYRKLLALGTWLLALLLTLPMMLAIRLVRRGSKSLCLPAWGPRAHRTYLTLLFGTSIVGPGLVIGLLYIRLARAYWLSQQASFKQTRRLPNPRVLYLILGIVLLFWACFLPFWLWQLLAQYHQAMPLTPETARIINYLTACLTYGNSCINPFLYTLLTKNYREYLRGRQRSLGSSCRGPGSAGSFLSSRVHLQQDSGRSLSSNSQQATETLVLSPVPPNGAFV
Outline: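 Cloned mouse urotensin (mUR2) receptor membranes from Perkin Elmer Biosignal were immobilized in FlashPlate microplates using a proprietary coating. Each well got 19.5 μl buffer, then 0.5 μl of DMSO, reference ligand, or compound. Adding 5 μl of [125I]-Urotensin II, diluted to 5× final concentration in binding buffer, started binding. Plates were sealed with TopSeal-A and incubated 1 hour at room temperature in the dark. Wells were counted for 30 seconds each on a TopCount after a 60-second delay, and percentage inhibition was calculated.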

T4 sequence (P32245 whole entry): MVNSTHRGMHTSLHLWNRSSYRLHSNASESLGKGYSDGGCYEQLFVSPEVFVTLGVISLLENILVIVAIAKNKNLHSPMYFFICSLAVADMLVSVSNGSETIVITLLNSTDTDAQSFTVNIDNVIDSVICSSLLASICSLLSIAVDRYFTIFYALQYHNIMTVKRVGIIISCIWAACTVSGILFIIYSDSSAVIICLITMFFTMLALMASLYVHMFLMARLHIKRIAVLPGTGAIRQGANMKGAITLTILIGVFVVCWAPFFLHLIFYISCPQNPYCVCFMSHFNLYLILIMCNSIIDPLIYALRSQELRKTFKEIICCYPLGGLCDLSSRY
T3 sequence (P41968 whole entry): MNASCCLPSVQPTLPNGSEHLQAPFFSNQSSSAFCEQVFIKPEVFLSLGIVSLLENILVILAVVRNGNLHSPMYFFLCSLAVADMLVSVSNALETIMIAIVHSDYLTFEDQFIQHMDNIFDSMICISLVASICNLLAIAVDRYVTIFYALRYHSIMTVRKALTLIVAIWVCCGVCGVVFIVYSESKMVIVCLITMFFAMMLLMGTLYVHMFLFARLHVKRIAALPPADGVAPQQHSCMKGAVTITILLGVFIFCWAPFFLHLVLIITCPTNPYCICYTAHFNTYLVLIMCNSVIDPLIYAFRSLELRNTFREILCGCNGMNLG
T7 sequence (P35372 whole entry): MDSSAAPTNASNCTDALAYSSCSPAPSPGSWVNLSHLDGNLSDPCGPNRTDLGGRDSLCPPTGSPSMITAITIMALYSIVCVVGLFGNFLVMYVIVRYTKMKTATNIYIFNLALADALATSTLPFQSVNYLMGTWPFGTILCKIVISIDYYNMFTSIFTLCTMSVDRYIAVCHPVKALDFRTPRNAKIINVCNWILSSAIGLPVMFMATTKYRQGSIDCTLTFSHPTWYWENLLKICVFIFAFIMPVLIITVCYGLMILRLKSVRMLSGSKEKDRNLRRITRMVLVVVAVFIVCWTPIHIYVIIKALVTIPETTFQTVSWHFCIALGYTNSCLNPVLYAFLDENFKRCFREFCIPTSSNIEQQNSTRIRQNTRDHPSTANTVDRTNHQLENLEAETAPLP
T5 sequence (P33032 whole entry): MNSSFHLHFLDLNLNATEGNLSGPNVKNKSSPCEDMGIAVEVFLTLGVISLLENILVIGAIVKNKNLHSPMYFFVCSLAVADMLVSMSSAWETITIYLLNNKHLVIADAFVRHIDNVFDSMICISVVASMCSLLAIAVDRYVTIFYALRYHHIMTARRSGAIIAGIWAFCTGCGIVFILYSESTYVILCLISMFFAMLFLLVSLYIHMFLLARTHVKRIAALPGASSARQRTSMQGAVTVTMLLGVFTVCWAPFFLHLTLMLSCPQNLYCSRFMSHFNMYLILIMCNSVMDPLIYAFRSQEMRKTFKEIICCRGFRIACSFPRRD
T2 sequence (P41145 whole entry): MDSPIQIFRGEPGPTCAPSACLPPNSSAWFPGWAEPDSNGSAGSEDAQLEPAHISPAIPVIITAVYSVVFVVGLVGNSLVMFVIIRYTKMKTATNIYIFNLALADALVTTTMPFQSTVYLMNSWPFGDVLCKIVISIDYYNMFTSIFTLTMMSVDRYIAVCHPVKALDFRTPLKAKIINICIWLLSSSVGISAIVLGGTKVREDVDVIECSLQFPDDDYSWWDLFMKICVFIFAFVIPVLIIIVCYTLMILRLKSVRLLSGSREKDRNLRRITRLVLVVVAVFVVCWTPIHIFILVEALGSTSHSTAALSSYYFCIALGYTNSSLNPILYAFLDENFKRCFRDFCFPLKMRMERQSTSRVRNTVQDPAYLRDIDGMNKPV
T10 sequence (P41146 whole entry): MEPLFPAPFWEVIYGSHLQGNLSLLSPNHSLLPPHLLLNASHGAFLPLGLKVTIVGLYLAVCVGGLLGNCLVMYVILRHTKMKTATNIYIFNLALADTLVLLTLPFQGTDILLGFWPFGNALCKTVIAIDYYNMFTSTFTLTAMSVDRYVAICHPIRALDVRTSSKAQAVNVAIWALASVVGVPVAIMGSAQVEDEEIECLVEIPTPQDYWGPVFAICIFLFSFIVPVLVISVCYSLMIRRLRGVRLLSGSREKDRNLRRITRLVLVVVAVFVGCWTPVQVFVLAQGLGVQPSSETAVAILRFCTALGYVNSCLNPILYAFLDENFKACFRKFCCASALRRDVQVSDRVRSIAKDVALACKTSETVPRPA
T1 sequence (P41143 whole entry): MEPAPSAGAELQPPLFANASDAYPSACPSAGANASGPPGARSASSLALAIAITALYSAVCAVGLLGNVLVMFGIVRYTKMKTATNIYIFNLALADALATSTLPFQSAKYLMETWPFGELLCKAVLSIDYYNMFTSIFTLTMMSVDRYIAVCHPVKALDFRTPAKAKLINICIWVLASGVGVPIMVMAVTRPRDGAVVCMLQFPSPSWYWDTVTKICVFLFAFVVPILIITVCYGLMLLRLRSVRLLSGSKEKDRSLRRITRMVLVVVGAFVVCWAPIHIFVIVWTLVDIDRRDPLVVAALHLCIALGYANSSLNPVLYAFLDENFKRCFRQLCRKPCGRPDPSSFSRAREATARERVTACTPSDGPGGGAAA
T8 sequence (P25103 whole entry): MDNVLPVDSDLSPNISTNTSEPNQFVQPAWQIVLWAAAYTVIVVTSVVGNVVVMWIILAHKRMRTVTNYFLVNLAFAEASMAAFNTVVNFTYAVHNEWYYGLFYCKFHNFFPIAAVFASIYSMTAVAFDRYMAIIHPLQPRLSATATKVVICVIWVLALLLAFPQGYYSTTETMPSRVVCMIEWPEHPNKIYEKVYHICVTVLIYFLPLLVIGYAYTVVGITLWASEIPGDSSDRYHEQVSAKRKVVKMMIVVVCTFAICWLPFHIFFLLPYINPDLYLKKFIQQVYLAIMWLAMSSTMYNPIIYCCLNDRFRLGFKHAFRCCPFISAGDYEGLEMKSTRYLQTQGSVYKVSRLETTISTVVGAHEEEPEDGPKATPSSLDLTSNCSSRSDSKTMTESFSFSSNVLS
T6 sequence (Q99705 whole entry): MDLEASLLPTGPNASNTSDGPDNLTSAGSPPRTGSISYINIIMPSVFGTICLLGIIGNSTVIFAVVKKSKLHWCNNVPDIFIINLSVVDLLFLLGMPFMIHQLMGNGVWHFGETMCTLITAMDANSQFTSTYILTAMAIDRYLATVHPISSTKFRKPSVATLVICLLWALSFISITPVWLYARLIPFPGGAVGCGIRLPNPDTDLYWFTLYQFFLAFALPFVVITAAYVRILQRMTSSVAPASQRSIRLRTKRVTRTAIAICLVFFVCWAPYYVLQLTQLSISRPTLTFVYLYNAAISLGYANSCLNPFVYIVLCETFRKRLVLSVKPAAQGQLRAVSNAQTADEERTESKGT

Structure (SMILES)	A1: inhibition of radioligand binding, human δ-opioid (DOP) (Human δ-opioid (DOP))	A2: inhibition of radioligand binding, human κ-opioid (KOP) (Human κ-Opioid (KOP))	A3: inhibition of radioligand binding, human melanocortin (MC3) (Human Melanocortin (MC3))	A4: inhibition of radioligand binding, human melanocortin (MC4) (Human Melanocortin (MC4))	A5: inhibition of radioligand binding, human melanocortin (MC5) (Human melanocortin (MC5))	A6: inhibition of radioligand binding, human melanin-concentrating hormone (MCH1) [1]	A7: inhibition of radioligand binding, human μ-opioid (MOP) (Human μ-opioid (MOP); 10 µM)	A8: inhibition of radioligand binding, human neurokinin (NK1) (Human neurokinin (NK1))	A9: inhibition of radioligand binding, human neuropeptide Y (NPY-Y1) ([2]; 10 µM)	A10: inhibition of radioligand binding, human opioid (ORL1) (Human opioid (ORL1))	A11: inhibition of radioligand binding, mouse urotensin (mUR2) (Mouse urotensin (mUR2))	A2: inhibition of radioligand binding, human κ-opioid (KOP) (Human κ-Opioid (KOP); 10 µM)	A3: inhibition of radioligand binding, human melanocortin (MC3) (Human Melanocortin (MC3); 10 µM)	A4: inhibition of radioligand binding, human melanocortin (MC4) (Human Melanocortin (MC4); 10 µM)	A7: inhibition of radioligand binding, human μ-opioid (MOP) (Human μ-opioid (MOP))	A9: inhibition of radioligand binding, human neuropeptide Y (NPY-Y1) [2]
N=C(N)NCCC(=O)N[C@H]1C(OCc2ccc(Cl)cc2)O[C@H](COCc2ccc3ccccc3c2)[C@@H](O)[C@@H]1OCc1ccc(Cl)cc1 (stereo partly shown) [compound 523]	− (“−” indicates less than 50% inhibition at 10 μM)	+ (“+” indicates greater than 50% inhibition at 10 μM)	+ (“+” indicates greater than 50% inhibition at 10 μM)	+ (“+” indicates greater than 50% inhibition at 10 μM)	+ (“+” indicates greater than 50% inhibition at 10 μM)	+ (“+” indicates greater than 50% inhibition at 10 μM)	+ (“+” indicates greater than 50% inhibition at 10 μM)	+ (“+” indicates greater than 50% inhibition at 10 μM)	− (“−” indicates less than 50% inhibition at 10 μM)	+ (“+” indicates greater than 50% inhibition at 10 μM)	− (“−” indicates less than 50% inhibition at 10 μM)					
N=C(N)NCCC(=O)N[C@H]1C(OCc2ccc(Cl)cc2)O[C@H](COCc2ccccc2)[C@@H](O)[C@@H]1OCc1ccc(Cl)cc1 (stereo partly shown) [compound 524]	− (“−” indicates less than 50% inhibition at 10 μM)				+ (“+” indicates greater than 50% inhibition at 10 μM)	+ (“+” indicates greater than 50% inhibition at 10 μM)		+ (“+” indicates greater than 50% inhibition at 10 μM)		− (“−” indicates less than 50% inhibition at 10 μM)	− (“−” indicates less than 50% inhibition at 10 μM)	− (“−” indicates less than 50% inhibition at 10 μM)	− (“−” indicates less than 50% inhibition at 10 μM)	− (“−” indicates less than 50% inhibition at 10 μM)	− (“−” indicates less than 50% inhibition at 10 μM)	− (“−” indicates less than 50% inhibition at 10 μM)

Reference: patent US20080009418A1, “Selective Inhibitors” (Alchemia LTD., priority 2004, published 2008)
